This is an account of results in PubChem BioAssay (NCI).

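Five compound concentrations were applied to cells in 96-well plates for 48 hours; endpoints were derived by simple linear interpolation of the resulting dose-response curve. TGI: concentration producing complete growth inhibition.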

Common to all, as to assay: inhibition of tumour cell growth, NCI panel, 48 h
The test system of assay [1] is 786-0 renal.
In assay [2] the test system is COLO 205 colon.
The subject of assay [3] is IGROV1 ovarian.
Assay [4] relates to LOX IMVI melanoma.
Assay [5] deals with MALME-3M melanoma.
Assay [6] deals with MDA-MB-435.
The test system of assay [7] is NCI-H460 lung.
Assay [8] has as its system NCI-H522 lung.
The subject of assay [9] is OVCAR-4 ovarian.
Assay [10] deals with OVCAR-5 ovarian.
In assay [11] the test system is PC-3 prostate.
The subject of assay [12] is SN12C renal.
For assay [13], the system named is SNB-19 CNS.
In assay [14] the test system is SW-620 colon.
The test system of assay [15] is T-47D breast.
In assay [16] the test system is TK-10 renal.
Assay [17] has as its system U251 CNS.
Assay [18] has as its system UACC-257 melanoma.

In the case of `CCOC(=O)c1cnc(N(C)C)nc1SC(=N)N`, the TGI in [1], in assay [2], in [3], in assay [4], in assay [5] and in [6] was above 100 µM in each case. Further, the TGI in [7], in [8], in [9], in assay [10], in [11] and in assay [12] was above 100 µM in each case. Also, the TGI in assay [13], in assay [14], in assay [15], in [16], in assay [17] and in assay [18] was above 100 µM throughout.

Regarding `C[n+]1cccc(NC(=O)c2ccc(NC(=O)C34CCC(C(=O)Nc5ccc(C(=O)Nc6ccc[n+](C)c6)cc5)(CC3)CC4)cc2)c1`, the TGI in assay [1], in assay [3], in assay [4], in assay [7], in assay [8] and in [9] was above 100 µM each time. Also, the TGI in [10] was above 100 µM; in [12], 75.1 µM; in [13] it was above 100 µM; in assay [14], above 100 µM; in assay [17], above 100 µM; in [18] it was above 100 µM.

For `O=C(COc1ccc(Cl)c(Cl)c1)Nc1ccc[n+](Cc2ccc(S(=O)(=O)F)c(Cl)c2)c1`, the TGI in assay [1], in assay [2], in [3], in [5], in assay [6] and in assay [7] was above 100 µM each time. For the same compound, the TGI in assay [8], in [9], in assay [10], in assay [11], in assay [12] and in assay [13] was above 100 µM each time. Moreover, the TGI in [14], in assay [15], in assay [16], in assay [17] and in assay [18] was above 100 µM in each case.

For `Cc1ccc(O)c(Cc2nc3ccccc3nc2-c2cccc(Cl)c2)c1`, the TGI is above 100 µM in assay [1]; above 100 µM in assay [2]; above 100 µM in assay [3]; above 100 µM in assay [4]; above 100 µM in [5]; 54.9 µM in [6]. Besides, the TGI in [7] is above 100 µM; in assay [8], 79 µM; in [9], 65.8 µM; in assay [10] it was above 100 µM; in assay [11], above 100 µM; in assay [12], above 100 µM. The TGI in [13] was 63.4 µM; in assay [14], above 100 µM; in [15], above 100 µM; in [16] it was above 100 µM; in [17], above 100 µM; in [18] it was above 100 µM.

For the compound `CCCCN1C(=O)C2Cc3c([nH]c4ccccc34)C(c3cccc(O)c3)N2C1=O` (centres undefined), the TGI came to 34.4 µM in assay [1]; 39.5 µM in assay [2]; 31.3 µM in assay [3]; 32.2 µM in [4]; 32.4 µM in assay [6]; 37.1 µM in [7]. The TGI in assay [8] was found to be 39.9 µM; in assay [9] it was 34.6 µM; in [10], 33 µM; in assay [11] it was 32.8 µM; in assay [12], 32.5 µM; in assay [13] it was 34.6 µM. Moreover, the TGI amounted to 38.7 µM in [14]; 51.9 µM in assay [15]; 33.6 µM in assay [16]; 33.5 µM in [17]; 33.9 µM in assay [18].

As to `O=C(CSCC(=O)N/N=C/c1ccc2c(c1)OCO2)N/N=C/c1ccc2c(c1)OCO2`, the TGI in assay [1], in assay [3], in [4], in [5], in assay [6] and in [7] was above 100 µM throughout. Further, the TGI in [8], in assay [9], in assay [10], in assay [11], in assay [12] and in [13] was above 100 µM throughout. The TGI in assay [14], in assay [15], in assay [16], in assay [17] and in [18] was above 100 µM each time.

`C[C@H]1C[C@@H]2[C@H]([C@@H](O)C[C@@]3(C)[C@H]2CC[C@]3(O)C(=O)CO)[C@@]2(C)C=CC(=O)C=C12`: the TGI in assay [1], in assay [2], in assay [3], in assay [4], in assay [5] and in assay [7] was above 100 µM each time. For the same compound, the TGI in assay [8], in [9], in [10], in [12], in assay [14] and in assay [16] was above 100 µM in each case. In assay [18], this compound came in with a TGI above 100 µM.

Consider `c1ccc2c(CSCc3cccc4ccccc34)cccc2c1`, for which the TGI in assay [1], in assay [3], in assay [4], in [5], in [6] and in [7] was above 100 µM in each case. Also, the TGI in [8], in assay [9], in assay [10], in [11], in assay [12] and in assay [13] was above 100 µM in each case. Also, the TGI in assay [14], in assay [15], in assay [16], in assay [17] and in assay [18] was above 100 µM throughout.
